# Read-outs that look alike come from different tables or passages of the source.
# Key:
# Assay type in all cases: in vivo
# [1] = test system: snap beans; test: Greenhouse pre-emergence GR15/GR85 selectivity test; conditions: Table VI
# Source text: A good grade of top soil is placed in aluminum pans and compacted to a depth of three-eighths to one-half inch from the top of the pan. On the top of the soil is placed a number of seeds or vegetative propagules of various plant species. The soil required to level fill the pans after seeding or adding vegetative propagules is weighed into a pan. The soil and a known amount of the active ingredient applied in a solvent or as a wettable powder suspension are thoroughly mixed, and used to cover the prepared pans. After treatment, the pans are given an initial overhead irrigation of eater, equivalent to one-fourth inch (0.64 cm) rainfall, then watered by subirrigation as need to give adequate moisture for germination and growth. As an alternative procedure, the overhead irrigation may be omitted. Observations are made about 2-3 weeks after seeding and treatment.
# In the discussion and tables of data below, reference is made to herbicide application rates symbolized as "GR15 " and "GR85 "; these rates are given in kilograms per hectare (kg/ha) which are convertible into pounds per acre (lbs/A) by dividing the kg/ha rate by 1.12.
# A further guide to the effectiveness of a chemical as a selective herbicide is the "selectivity factor" ("SF") for a herbicide in given crops and weeds. […]
# [2] = test system: soybeans; test: as above; conditions: for GR15 Rate: Table XIV
# Outline: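 Active ingredient mixed into cover soil over seeded pans (pre-emergence soil incorporation), initial overhead irrigation equal to 0.64 cm rainfall, then subirrigation. Scored about 2-3 weeks after seeding; GR15 (crop) and GR85 (weed) rates in kg/ha, selectivity factor = crop GR15 / weed GR85.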
# [3] = test system: wild proso millet; test: Field pre-emergence selectivity test; conditions: 1008 h, 6 weeks, read-out: Percent Inhibition; for inhibition at 560 g/ha: 0.56 Kg/Ha; for inhibition at 1120 g/ha: 1.12 Kg/Ha; for inhibition at 2240 g/ha: 2.24 Kg/Ha; for inhibition at 4480 g/ha: 4.48 Kg/Ha
# Procedure: The compound of Examples 1 and 2 was also tested in the field to determine its pre-emergence selectivity against foxtail (spp), barnyardgrass, wild proso millet, smartweed, lambsquarters and pigweed in a plurality of crops; the data (representing three replicate runs) are shown in Table VII for both surface application (S.A.) and soil incorporation (PPI, i.e., preplant incorporation) of the herbicide. The seeds were planted in a fine seedbed of silt loam of intermediate moisture. The seeds were planted at a depth of two inches (5.08 cm). First rainfall (0.2"; 0.51 cm) occurred the day following treatment, the second rain (0.25"; […]) two days after treatment; cumulative rainfall 22 days after treatment was 1.8" (4.57 cm). Observations were made 6 weeks after treatment.
# [4] = test system: Barnyardgrass; test: Resistance to leaching and resulting herbicidal efficacy; conditions: for inhibition at 140 g/ha / inhibition at 560 g/ha / inhibition at 2200 g/ha: Echinochloa crus-galli, read-out: Percent Inhibition
# Procedure: Laboratory tests were conducted to determine the resistance of herbicides according to this invention to leaching into the soil and resulting herbicidal efficacy. […] The pots containing the treated soil were subjected to leaching by placing on a turntable which rotated under two nozzle tips of a water container calibrated to deliver one inch (2.5 cm) of water per hour simulating rainfall. Leaching rates were adjusted by varying the amount of time on the turntable. Water was delivered to the soil in the pots and allowed to percolate through the filter paper and drainage holes. The pots were then allowed to sit for three days at ambient room temperature. The treated soil in the pots was then removed, crumbled and placed as a surface layer on top of other pots containing the above soils seeded with barnyardgrass seeds. The pots were then placed on greenhouse benches, sub-irrigated and allowed to grow for 2-3 weeks. Visual ratings of percent growth inhibition compared to control (untreated) pots and fresh weights for barnyardgrass were recorded; the data from the control represents six replications and that for the test compounds three replications; test data are shown in Table XVIII.
# [5] = Ray silt loam, 0.14 Kg/Ha, rain 0 cm
# [6] = Ray silt loam, 0.14 Kg/Ha, rain 1.27 cm
# [7] = Ray silt loam, 0.14 Kg/Ha, rain 5.08 cm
# [8] = Ray silt loam, 0.56 Kg/Ha, rain 0 cm
# [9] = Ray silt loam, 0.56 Kg/Ha, rain 1.27 cm
# [10] = Ray silt loam, 0.56 Kg/Ha, rain 5.08 cm
# [11] = Ray silt loam, 0.56 Kg/Ha, rain 10.16 cm
# [12] = Ray silt loam, 2.2 Kg/Ha, rain 0 cm
# [13] = Ray silt loam, 2.2 Kg/Ha, rain 1.27 cm
# [14] = Ray silt loam, 2.2 Kg/Ha, rain 5.08 cm
# [15] = Ray silt loam, 2.2 Kg/Ha, rain 10.16 cm
# [16] = Ray silt loam, 0.14 Kg/Ha, rain 10.16 cm
structure (smiles),measurement,setting,value
"CCOCN(C(=O)CCl)c1c(C)cccc1C(F)(F)F [Example 1, N-(ethoxymethyl)-2'-trifluoromethyl-6'-methyl-2-chloroacetanilide]",GR15 Rate,[1],0.90 Kg/Ha
same,GR15 Rate,[2],> 1.1 Kg/Ha
same,GR15,[2]; soybeans/purple nutsedge,1.1 kg/ha
same,inhibition at 560 g/ha,[3]; P.P.I.,23%
same,inhibition at 1120 g/ha,[3]; P.P.I.,58%
same,inhibition at 2240 g/ha,[3]; P.P.I.,80%
same,inhibition at 4480 g/ha,[3]; P.P.I.,85%
same,inhibition at 560 g/ha,[3]; S.A.,63%
same,inhibition at 1120 g/ha,[3]; S.A.,83%
same,inhibition at 2240 g/ha,[3]; S.A.,95%
same,inhibition at 4480 g/ha,[3]; S.A.,97%
same,inhibition at 140 g/ha,"[4]; Drummer silt clay, 0.14 Kg/Ha, rain 0 cm",100%
same,inhibition at 140 g/ha,"[4]; Drummer silt clay, 0.14 Kg/Ha, rain 1.27 cm",97%
same,inhibition at 140 g/ha,"[4]; Drummer silt clay, 0.14 Kg/Ha, rain 5.08 cm",95%
same,inhibition at 140 g/ha,"[4]; Drummer silt clay, 0.14 Kg/Ha, rain 10.16 cm",20%
same,inhibition at 560 g/ha,"[4]; Drummer silt clay, 0.56 Kg/Ha, rain 0 cm",100%
same,inhibition at 560 g/ha,"[4]; Drummer silt clay, 0.56 Kg/Ha, rain 1.27 cm",100%
same,inhibition at 560 g/ha,"[4]; Drummer silt clay, 0.56 Kg/Ha, rain 5.08 cm",100%
same,inhibition at 560 g/ha,"[4]; Drummer silt clay, 0.56 Kg/Ha, rain 10.16 cm",100%
same,inhibition at 2200 g/ha,"[4]; Drummer silt clay, 2.2 Kg/Ha, rain 0 cm",100%
same,inhibition at 2200 g/ha,"[4]; Drummer silt clay, 2.2 Kg/Ha, rain 1.27 cm",100%
same,inhibition at 2200 g/ha,"[4]; Drummer silt clay, 2.2 Kg/Ha, rain 5.08 cm",100%
same,inhibition at 2200 g/ha,"[4]; Drummer silt clay, 2.2 Kg/Ha, rain 10.16 cm",100%
same,inhibition at 140 g/ha,[4]; [5],95%
same,inhibition at 140 g/ha,[4]; [6],96%
same,inhibition at 140 g/ha,[4]; [7],58%
same,inhibition at 560 g/ha,[4]; [8],100%
same,inhibition at 560 g/ha,[4]; [9],100%
same,inhibition at 560 g/ha,[4]; [10],70%
same,inhibition at 560 g/ha,[4]; [11],33%
same,inhibition at 2200 g/ha,[4]; [12],100%
same,inhibition at 2200 g/ha,[4]; [13],100%
same,inhibition at 2200 g/ha,[4]; [14],95%
same,inhibition at 2200 g/ha,[4]; [15],35%
same,inhibition at 140 g/ha,[4]; [16],20%
same,Fresh Weight,[4]; [5],0.20 Grams
same,Fresh Weight,[4]; [6],0.17 Grams
same,Fresh Weight,[4]; [7],1.74 Grams
same,Fresh Weight,[4]; [16],3.26 Grams
same,Fresh Weight,[4]; [8],0 Grams
same,Fresh Weight,[4]; [9],0 Grams
same,Fresh Weight,[4]; [10],1.21 Grams
same,Fresh Weight,[4]; [11],2.73 Grams
same,Fresh Weight,[4]; [12],0 Grams
same,Fresh Weight,[4]; [13],0 Grams
same,Fresh Weight,[4]; [14],0.20 Grams
same,Fresh Weight,[4]; [15],2.65 Grams
"CC(C)OCN(C(=O)CCl)c1ccccc1C(F)(F)F [Example 2, N--(isopropoxymethyl)-2'-trifluoromethyl-2-chloroacetanilide]",GR15 Rate,[1],2.2 Kg/Ha
same,GR15 Rate,[2],> 1.1 Kg/Ha
same,inhibition at 560 g/ha,[3]; P.P.I.,35%
same,inhibition at 1120 g/ha,[3]; P.P.I.,48%
same,inhibition at 2240 g/ha,[3]; P.P.I.,68%
same,inhibition at 4480 g/ha,[3]; P.P.I.,87%
same,inhibition at 560 g/ha,[3]; S.A.,27%
same,inhibition at 1120 g/ha,[3]; S.A.,63%
same,inhibition at 2240 g/ha,[3]; S.A.,75%
same,inhibition at 4480 g/ha,[3]; S.A.,93%

# Source: patent US4731109A, “Herbicidal 2-haloacetanilides” (Monsanto Company, priority 1982, dated 1988)
